{
  "source": "patent US20250249056A1",
  "about": "“CANCER THERAPIES COMPRISING A NUCLEAR EXPORT INHIBITOR AND AN ONCOLYTIC VIRUS” (priority 2022, published 2025)",
  "test_system": "Colo205 cells",
  "type": "cell-based, human",
  "note": "Like-named read-outs stand apart in the source and are kept apart here.",
  "data": [
    {"molecule": "O=C(/C=C\\n1cnc(-c2cc(C(F)(F)F)cc(C(F)(F)F)c2)n1)NNc1cnccn1", "note": "[selinexor]", "values": [
      {"measurement": "Differential protein expression, NPAT", "setting": "Q14207, selinexor-treated cytoplasm vs control cytoplasm", "value": 0.01},
      {"measurement": "Differential protein expression, DSC3", "setting": "Q14574, selinexor-treated cytoplasm vs control cytoplasm", "value": 2.069},
      {"measurement": "Differential protein expression, NCOA6", "setting": "Q14686, selinexor-treated cytoplasm vs control cytoplasm", "value": 0.01},
      {"measurement": "Differential protein expression, SETDB1", "setting": "Q15047, selinexor-treated cytoplasm vs control cytoplasm", "value": 0.01},
      {"measurement": "Differential protein expression, RRS1", "setting": "Q15050, selinexor-treated cytoplasm vs control cytoplasm", "value": 2.155},
      {"measurement": "Differential protein expression, TOMM20", "setting": "Q15388, selinexor-treated cytoplasm vs control cytoplasm", "value": 2.862},
      {"measurement": "Differential protein expression, CDSN", "setting": "Q15517, selinexor-treated cytoplasm vs control cytoplasm", "value": 3.988},
      {"measurement": "Differential protein expression, TAF7", "setting": "Q15545, selinexor-treated cytoplasm vs control cytoplasm", "value": 0.402},
      {"measurement": "Differential protein expression, TAF1C", "setting": "Q15572, selinexor-treated cytoplasm vs control cytoplasm", "value": 100},
      {"measurement": "Differential protein expression, ELF2", "setting": "Q15723, selinexor-treated cytoplasm vs control cytoplasm", "value": 0.01},
      {"measurement": "Differential protein expression, M11L", "setting": "Q85295, selinexor-treated cytoplasm vs control cytoplasm", "value": 4.074},
      {"measurement": "Differential protein expression, MYO18A", "setting": "Q92614, selinexor-treated cytoplasm vs control cytoplasm", "value": 2.026},
      {"measurement": "Differential protein expression, USP6NL", "setting": "Q92738, selinexor-treated cytoplasm vs control cytoplasm", "value": 100},
      {"measurement": "Differential protein expression, TAF15", "setting": "Q92804, selinexor-treated cytoplasm vs control cytoplasm", "value": 2.706},
      {"measurement": "Differential protein expression, KAT5", "setting": "Q92993, selinexor-treated cytoplasm vs control cytoplasm", "value": 7.08},
      {"measurement": "Differential protein expression, TEAD3", "setting": "Q99594, selinexor-treated cytoplasm vs control cytoplasm", "value": 100},
      {"measurement": "Differential protein expression, SLC29A1", "setting": "Q99808, selinexor-treated cytoplasm vs control cytoplasm", "value": 0.406},
      {"measurement": "Differential protein expression, selinexor-treated nucleus vs control nucleus", "setting": "protein AAAS (Q9NRG9)", "value": 0.477},
      {"measurement": "Differential protein expression, selinexor-treated nucleus vs control nucleus", "setting": "protein ABHD10 (Q9NUJ1)", "value": 2.289},
      {"measurement": "Differential protein expression, selinexor-treated nucleus vs control nucleus", "setting": "protein ACAD10 (Q6JQN1)", "value": 2.239},
      {"measurement": "Differential protein expression, selinexor-treated nucleus vs control nucleus", "setting": "protein BRIX1 (Q8TDN6)", "value": 0.475},
      {"measurement": "Differential protein expression, selinexor-treated nucleus vs control nucleus", "setting": "protein CALML5 (Q9NZT1)", "value": 2.328},
      {"measurement": "Differential protein expression, selinexor-treated nucleus vs control nucleus", "setting": "protein CASP9 (P55211)", "value": 100},
      {"measurement": "Differential protein expression, selinexor-treated nucleus vs control nucleus", "setting": "protein CDK3 (Q00526)", "value": 0.472},
      {"measurement": "Differential protein expression, selinexor-treated nucleus vs control nucleus", "setting": "protein CHMP2B (Q9UQN3)", "value": 2.092},
      {"measurement": "Differential protein expression, selinexor-treated nucleus vs control nucleus", "setting": "protein CIB1 (Q99828)", "value": 0.474},
      {"measurement": "Differential protein expression, selinexor-treated nucleus vs control nucleus", "setting": "protein CIT (O14578)", "value": 0.498},
      {"measurement": "Differential protein expression, selinexor-treated nucleus vs control nucleus", "setting": "protein COA1 (Q9GZY4)", "value": 0.481},
      {"measurement": "Differential protein expression, selinexor-treated nucleus vs control nucleus", "setting": "protein CSTA (P01040)", "value": 2.196},
      {"measurement": "Differential protein expression, selinexor-treated nucleus vs control nucleus", "setting": "protein ECHDC1 (Q9NTX5)", "value": 2.716},
      {"measurement": "Differential protein expression, selinexor-treated nucleus vs control nucleus", "setting": "protein EFNB1 (P98172)", "value": 100},
      {"measurement": "Differential protein expression, selinexor-treated nucleus vs control nucleus", "setting": "protein ERLIN2 (O94905)", "value": 0.498},
      {"measurement": "Differential protein expression, selinexor-treated nucleus vs control nucleus", "setting": "protein F5 (P12259)", "value": 100},
      {"measurement": "Differential protein expression, selinexor-treated nucleus vs control nucleus", "setting": "protein FBLIM1 (Q8WUP2)", "value": 0.481},
      {"measurement": "Differential protein expression, selinexor-treated nucleus vs control nucleus", "setting": "protein FHIP1B (Q8N612)", "value": 100},
      {"measurement": "Differential protein expression, selinexor-treated nucleus vs control nucleus", "setting": "protein FN3K (Q9H479)", "value": 2.007},
      {"measurement": "Differential protein expression, selinexor-treated nucleus vs control nucleus", "setting": "protein FOS (P01100)", "value": 2.044},
      {"measurement": "Differential protein expression, selinexor-treated nucleus vs control nucleus", "setting": "protein FXR1 (Q9UM11)", "value": 2.17},
      {"measurement": "Differential protein expression, selinexor-treated nucleus vs control nucleus", "setting": "protein GEMIN5 (Q8TEQ6)", "value": 0.496},
      {"measurement": "Differential protein expression, selinexor-treated nucleus vs control nucleus", "setting": "protein GEMIN6 (Q8WXD5)", "value": 0.473},
      {"measurement": "Differential protein expression, selinexor-treated nucleus vs control nucleus", "setting": "protein GNL2 (Q13823)", "value": 2.38},
      {"measurement": "Differential protein expression, selinexor-treated nucleus vs control nucleus", "setting": "protein H2AC1 (Q96QV6)", "value": 2.215},
      {"measurement": "Differential protein expression, selinexor-treated nucleus vs control nucleus", "setting": "protein H2AC4 (P04908)", "value": 2.544},
      {"measurement": "Differential protein expression, selinexor-treated nucleus vs control nucleus", "setting": "protein H2AC6 (Q93077)", "value": 2.544},
      {"measurement": "Differential protein expression, selinexor-treated nucleus vs control nucleus", "setting": "protein H2AC18 (Q6FI13)", "value": 2.322},
      {"measurement": "Differential protein expression, selinexor-treated nucleus vs control nucleus", "setting": "protein H2AC20 (Q16777)", "value": 2.322},
      {"measurement": "Differential protein expression, selinexor-treated nucleus vs control nucleus", "setting": "protein H2AC21 (Q8IUE6)", "value": 2.215},
      {"measurement": "Differential protein expression, selinexor-treated nucleus vs control nucleus", "setting": "protein H2AC25 (Q7L7L0)", "value": 2.544},
      {"measurement": "Differential protein expression, selinexor-treated nucleus vs control nucleus", "setting": "protein H2AX (P16104)", "value": 2.215},
      {"measurement": "Differential protein expression, selinexor-treated nucleus vs control nucleus", "setting": "protein H2BK1 (A0A2R8Y619)", "value": 2.69},
      {"measurement": "Differential protein expression, selinexor-treated nucleus vs control nucleus", "setting": "protein H3-3A (P84243)", "value": 2.584},
      {"measurement": "Differential protein expression, selinexor-treated nucleus vs control nucleus", "setting": "protein HK1 (P19367)", "value": 0.496},
      {"measurement": "Differential protein expression, selinexor-treated nucleus vs control nucleus", "setting": "protein HNRNPA1L2 (Q32P51)", "value": 2.623},
      {"measurement": "Differential protein expression, selinexor-treated nucleus vs control nucleus", "setting": "protein KIF23 (Q02241)", "value": 0.492},
      {"measurement": "Differential protein expression, selinexor-treated nucleus vs control nucleus", "setting": "protein KRT1 (P04264)", "value": 2.317},
      {"measurement": "Differential protein expression, selinexor-treated nucleus vs control nucleus", "setting": "protein KRT7 (P08729)", "value": 2.576},
      {"measurement": "Differential protein expression, selinexor-treated nucleus vs control nucleus", "setting": "protein KRT14 (P02533)", "value": 2.157},
      {"measurement": "Differential protein expression, selinexor-treated nucleus vs control nucleus", "setting": "protein KRT24 (Q2M2I5)", "value": 2.19},
      {"measurement": "Differential protein expression, selinexor-treated nucleus vs control nucleus", "setting": "protein KRT25 (Q7Z3Z0)", "value": 2.158},
      {"measurement": "Differential protein expression, selinexor-treated nucleus vs control nucleus", "setting": "protein KRT27 (Q7Z3Y8)", "value": 2.158},
      {"measurement": "Differential protein expression, selinexor-treated nucleus vs control nucleus", "setting": "protein KRT28 (Q7Z3Y7)", "value": 2.058},
      {"measurement": "Differential protein expression, selinexor-treated nucleus vs control nucleus", "setting": "protein LGALS7 (P47929)", "value": 2.013},
      {"measurement": "Differential protein expression, selinexor-treated nucleus vs control nucleus", "setting": "protein LRRC58 (Q96CX6)", "value": 2.747},
      {"measurement": "Differential protein expression, selinexor-treated nucleus vs control nucleus", "setting": "protein MAFF (Q9ULX9)", "value": 2.133},
      {"measurement": "Differential protein expression, selinexor-treated nucleus vs control nucleus", "setting": "protein MAGED2 (Q9UNF1)", "value": 2.271},
      {"measurement": "Differential protein expression, selinexor-treated nucleus vs control nucleus", "setting": "protein MAN1A1 (P33908)", "value": 100},
      {"measurement": "Differential protein expression, selinexor-treated nucleus vs control nucleus", "setting": "protein MICOS13 (Q5XKP0)", "value": 0.483},
      {"measurement": "Differential protein expression, selinexor-treated nucleus vs control nucleus", "setting": "protein MTX1 (Q13505)", "value": 0.499}
    ]}
  ]
}
